In patent US5830909A (American Cyanamid Company, priority 1996, dated 1998):
Structures can show the parent of a compound that is named as a salt. Where two headings read alike, the source gives them in different places.

Key:
AII receptor = biological target: T1, AII receptor (Rattus norvegicus, UniProt P25095); experiment: Displacement of 125I[Sar,Ile]AII binding in rat epididymal fat cell membranes; details: rat epididymal fat cell membranes (Table 8)
T1 construct: adipose tissue from the epididymal and retroperitoneal depots is quickly excised; from tissue; host or cells: membranes of collagenase-isolated adipocytes from epididymal and retroperitoneal fat of male Sprague-Dawley rats
T1 sequence (P25095 1-359): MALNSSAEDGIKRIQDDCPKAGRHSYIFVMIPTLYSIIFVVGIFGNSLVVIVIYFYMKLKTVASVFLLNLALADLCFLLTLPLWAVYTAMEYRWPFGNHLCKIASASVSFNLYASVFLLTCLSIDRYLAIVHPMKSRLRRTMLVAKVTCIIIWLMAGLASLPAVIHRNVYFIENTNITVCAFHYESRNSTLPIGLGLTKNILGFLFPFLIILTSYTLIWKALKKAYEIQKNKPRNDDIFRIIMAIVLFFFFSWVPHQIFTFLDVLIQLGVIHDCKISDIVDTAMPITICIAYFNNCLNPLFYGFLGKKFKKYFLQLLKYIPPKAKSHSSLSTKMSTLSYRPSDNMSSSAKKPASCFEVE
From the text: The experimental design involves determining the binding characteristics of adipocyte membranes harvested from two different anatomic sites at three different ages. Male Sprague-Dawley rats (Charles River Laboratories, Wilmington, Mass.) are used at 40, 70 and 100 days of age. Rats are killed by carbon dioxide inhalation on the morning of the experiment, and adipose tissue from the epididymal and retroperitoneal depots is quickly excised and placed in cold saline. The spermatic artery and vein are removed from the epididymal fat, and brown fat deposits are dissected away from the retroperitoneal depot. The adipose tissue is weighed, minced into small pieces, and approximately 10 g each transferred to a flask containing 25 ml of Krebs-Ringer-bicarbonate buffer (KRB), 6 mM glucose and 50 mg of collagenase, pH 7.4. […] Intact adipocytes dissociated from the tissue pass freely into waiting tubes, while the undigested tissue is trapped on the screen. The tubes containing the adipocytes are washed an additional 4× with 20 ml each of cold Tris buffer (10 mM Tris HCl, pH 8.0) by first allowing the adipocytes to separate from the digestion medium by flotation, removing the infranatant through polyethylene tubing attached to a syringe, resuspending the cells in the Tris buffer, and repeating this procedure. Adipocyte membranes used for binding studies are prepared as follows. […] Following centrifugation, the fat cake and supernatant are carefully removed, and the pellet resuspended in 1 ml of Tris buffer. Protein content of the high speed pellet is determined, the resuspended protein is either assayed immediately or stored at -75° before binding assays are performed. […] The assay is initiated by the addition of the membrane protein, followed by incubation at 22° C. for 30 minutes in a slowly shaking water bath. Separation of bound from free radioactivity is achieved using any appropriate filtration apparatus. We use either a Millipore or Brandel model harvesting apparatus containing a Durapore or Whatman GF/B filter, followed by 6 additional rinses with 5 ml each of cold saline. The filters are placed in tubes, and radioactivity measured in a gamma scintillation counter programmed to correct for the half-life of the isotope. Using this experimental protocol, both the affinity (KD) and number of binding sites (Bmax) for angiotensin II on the adipocyte membrane can be calculated. The relative affinities of different anatomically distinct adipocyte membranes for a variety of peptide and nonpeptide antagonists can also be determined. […] Concentration ranges can be altered dependent upon the affinity of the particular antagonist for the fat cell membrane receptor.

adipocyte AII receptor = experiment: Epididymal adipocyte AII receptor binding (Bmax) after two weeks oral treatment; format: in vivo, rat; details: 4 rats/group, oral once daily for 2 weeks
Method: (§1) Body weight and food intake are monitored daily. At the end of two weeks, the rats are sacrificed and tissues are weighed. Adipocyte membranes are prepared by collagenase digestion, homogenization and centrfugation.
Binding is initiated by suspending the adipocyte membranes in 0.25% BSA buffer (bovine serum albumin, 50 mM Tris HCl, 5 mM MgCl2,pH 7.4) to a final concentration of 5 ug protein/10 ul buffer. […] The filters are placed in tubes, and radioactivity measured in a gamma scintillation counter programmed to correct for the half-life of the isotope. Using this experimental protocol, both the affinity (KD) and number of binding sites (Bmax) for angiotensin II on the adipocyte membrane can be calculated.

epididymal adipocytes = experiment: Epididymal adipocyte cell volume after two weeks oral treatment; format: in vivo, rat; details: 4 rats/group, oral once daily for 2 weeks
Method: as §1, with “centrfugation. […] Of the organs sampled, the combined largest relative and quantitative change in weight was in the adipose tissue.” for “centrfugation.”

[1] = format: in vivo, rat; details: 15 mg/kg once a day by gavage, two weeks
Method: as §1, with “centrfugation. […] Of the organs sampled, the combined largest relative and quantitative change in weight was in the adipose tissue.” for “centrfugation.”

[2] = read-out: Epididymal IC50 for displacement of 125I[Sar,Ile]AII binding
[3] = Epididymal IC50 for displacement of 125I[Sar,Ile]AII binding

## 2-butyl-3,5,7,8-tetrahydro-3-[[2'-(1H-tetrazol-5-yl)[1,1'-biphenyl]-4-yl]methyl]-pyrido[4,3-d]pyrimidin-6(4H)-carboxylic acid phenylmethyl ester
AII receptor; [2]
  IC50: 17.9 nM

## 2-butyl-5,6,7,8-tetrahydro-6-(2-hydroxy-2-methyl-1-oxopropyl)-3-[[2'-(1H-tetrazol-5-yl)[1,1'-biphenyl]-4-yl]methyl]-4(3H)-quinazolinone
AII receptor; [2]
  IC50: 1.36 nM

## CCCCc1nc2ccc(C3(C(=O)OC)CC4CCCN4O3)cc2c(=O)n1Cc1ccc(-c2ccccc2-c2nnn[nH]2)cc1 (mixture of isomers) [trans-(+/-)-2-[2-butyl-3,4-dihydro-4-oxo-3-[[2'-(1H-tetrazol-5-yl)[1,1'-biphenyl]-4-yl]methyl]-6-quinazolinyl]hexahydropyrrolo[1,2-b]isoxazole-2-carboxylic acid methyl ester monohydro]
AII receptor; [3]
  IC50: 23.5 nM

## CCCCc1nc2ccc(C3(C)NN[C@H]4C(=O)N(C)C(=O)[C@H]43)cc2c(=O)n1Cc1ccc(-c2ccccc2-c2nn[nH]n2)cc1 (relative stereo) [(3aα,6aα)-3-[2-butyl-3,4-dihydro-4-oxo-3-[[2'-(1H-tetrazol-5-yl)[1,1'-biphenyl]-4-yl]methyl]-6-quinazolinyl]-2,3,3a,6a-tetrahydro-3,5-dimethylpyrrolo[3,4-c]pyrazole-4,6-(1H,5H)-dione]
AII receptor; [2]
  IC50: 550 nM

## CCCCc1nc2ccc(C(C)(O)C3CCN(C)C3=O)cc2c(=O)n1Cc1ccc(-c2ccccc2-c2nn[nH]n2)cc1 (single isomer, unassigned) [2-butyl-6-[1-hydroxy-1-(1-methyl-2-oxo-3-pyrrolidinyl)ethyl]-3-[[2'-(1H-tetrazol-5-yl)[1,1'-biphenyl]-4-yl]methyl]-4(3H)-quinazolinone isomer 1]
AII receptor; [3]
  IC50: 7.9 nM

## CCCCc1nc2ccc(C(O)C3CCCS3(=O)=O)cc2c(=O)n1Cc1ccc(-c2ccccc2-c2nn[nH]n2)cc1 (single isomer, unassigned) [2-butyl-6-[hydroxy(tetrahydro-2-thienyl)methyl]-3-[[2'-(1H-tetrazol-5-yl)[1,1'-biphenyl]-4-yl]methyl]-4(3H)-quinazolinone S,S-dioxide isomer 1]
AII receptor; [3]
  IC50: 1.68 nM

## CCCCc1nc2ccc(C(O)C3CCCS3(=O)=O)cc2c(=O)n1Cc1ccc(-c2ccccc2-c2nn[nH]n2)cc1 (single isomer, unassigned) [2-butyl-6-[hydroxy(tetrahydro-2-thienyl)methyl]-3-[[2'-(1H-tetrazol-5-yl)[1,1'-biphenyl]-4-yl]methyl]-4(3H)-quinazolinone S,S-dioxide isomer 2]
AII receptor; [3]
  IC50: 3.14 nM

## CCCCc1nc2ccc(C3=NN4CCCCC4C3)cc2c(=O)n1Cc1ccc(-c2ccccc2-c2nn[nH]n2)cc1 (centres unmarked) [2-butyl-6-(3,3a,4,5,6,7-hexahydropyrazolo[1,5-a]pyridin-2-yl)-3-[[2'-(1H-tetrazol-5-yl)[1,1'-biphenyl]-4-yl]methyl]-4(3H)-quinazolinone]
AII receptor; [3]
  IC50: 86.7 nM

## CCCCc1nc2ccc(COc3ccccc3)cc2c(=O)n1Cc1ccc(-c2ccccc2-c2nnn[nH]2)cc1 [2-butyl-6-(phenoxymethyl)-3-[[2'-(1H-tetrazol-5-yl)[1,1'-biphenyl]-4-yl]methyl]-4(3H)-quinazolinone]
AII receptor; [3]
  IC50: 163 nM

## CCCCc1nc2ccc(C3CC(c4ccc(C)cc4)=NO3)cc2c(=O)n1Cc1ccc(-c2ccccc2-c2nnn[nH]2)cc1 (centres unmarked) [2-butyl-6-[4,5-dihydro-3-(4-methylphenyl)-5-isoxazolyl]-3-[[2'-(1H-tetrazol-5-yl)[1,1'-biphenyl]-4-yl]methyl]-4(3H)-quinazolinone]
AII receptor; [3]
  IC50: 126 nM

## CCCCc1nc2ccc(COc3ccccn3)cc2c(=O)n1Cc1ccc(-c2ccccc2-c2nn[nH]n2)cc1 [2-butyl-6-[(2-pyridinyloxy)methyl]-3-[[2'-(1H-tetrazol-5-yl)[1,1'-biphenyl]-4-yl]methyl]-4(3H)-quinazolinone hydrochloride]
AII receptor; [3]
  IC50: 17.2 nM

## CCc1nc2c(C)cc(C)nc2n1Cc1ccc(-c2ccccc2-c2nnn[nH]2)cc1 [2-ethyl-5,7-dimethyl-3-[[2'-(1H-tetrazol-5-yl)[1,1-biphenyl]-4-yl]methyl]-3H-imidazo[4,5-b]pyridine, reference compound]
AII receptor; [3]
  IC50: 2.44 nM

## CCCCc1nc(Cl)c(CO)n1Cc1ccc(-c2ccccc2-c2nnn[nH]2)cc1 [2-n-butyl-4-chloro-5-hydroxymethyl-1-[(2'-(1H-tetrazol-5-yl)biphenyl-4-yl)methyl]imidazole, reference compound]
Adipocyte AII receptor
  Bmax, epididymal adipocyte AII receptor binding: 24.7 fmole/mg protein
Epididymal adipocytes
  Adipocyte Cell Volume: 163 p1
[1]
  Avg. Daily Food Intake, % Change From Control: -8%
  Avg. Weight Gain, % Change From Control: -38%
  Epididymal Fat Weight, % Change From Control: -21%
  Final Body Weight, % Change From Control: -5%
  Retroperitoneal Fat Weight, % Change From Control: -16%
[1]; n = 6
  Avg. Daily Food Intake: 30.1 g
  Avg. Weight Gain: 35 g
  Epididymal Fat Weight: 4.10 g
  Final Body Weight: 431 g
  Retroperitoneal Fat Weight: 4.10 g

## CCCCc1nc2ccc(C3(C)CC(C(=O)OCC)=NO3)cc2c(=O)n1Cc1ccc(-c2ccccc2-c2nn[nH]n2)cc1 (centres unmarked) [5-[2-butyl-3,4-dihydro-4-oxo-3-[[2'-(1H-tetrazol-5-yl)[1,1'-biphenyl]-4-yl]methyl]-6-quinazolinyl]-4,5-dihyrdro-5-methyl-3-isoxazolecarboxylic acid ethyl ester]
AII receptor; [3]
  IC50: 35.7 nM

## CCCc1nc(C)n2[nH]c(=O)nc2c1Cc1ccc(-c2ccccc2-c2nnn[nH]2)cc1 [5-methyl-7-propyl-8-[(2'-(1H-tetrazol-5-yl)biphenyl-4-yl)methyl]-1,2,4-triazolo[1,5-c]pyrimidin-2(3H)-one, reference compound]
AII receptor; [3]
  IC50: 5.63 nM

## CCCCc1nc2ccc([C@H]3C[C@@H](CO)ON3C)cc2c(=O)n1Cc1ccc(-c2ccccc2-c2nnn[nH]2)cc1 [(3R-cis)-2-butyl-6-[5-(hydroxymethyl)-2-methyl-3-isoxazolidinyl]-3-[[2'-(1H-tetrazol-5-yl)[1,1'-biphenyl-4-yl]methyl]-4(3H)-quinazolinone]
AII receptor; [3]
  IC50: 8.2 nM

## CCCCc1nc2ccc([C@@H]3C[C@@H](CO)ON3C)cc2c(=O)n1Cc1ccc(-c2ccccc2-c2nnn[nH]2)cc1 [(3S-trans)-2-butyl-6-[5-(hydroxymethyl)-2-methyl-3-isoxazolidinyl]-3-[[2'-(1H-tetrazol-5-yl)[1,1'-biphenyl]-4-yl]methyl]-4(3H)-quinazolinone]
AII receptor; [3]
  IC50: 18.6 nM

## CCCCc1nc2ccc([C@@H]3C[C@@H]4[C@H](O3)ON3[C@H]4CCC3(C)C)cc2c(=O)n1Cc1ccc(-c2ccccc2-c2nn[nH]n2)cc1 [[2S-(2α,3aα,3bβ,8aα)]-2-butyl-6-(6,6'-dimethyloctahydrofuro[3,2-d]pyrrolo[1,2-d]isoxazol-2-yl)-3-[[2'-(1H-tetrazol-5-yl)[1,1'-biphenyl]-4-yl]methyl]-4(3H)-quinazolinone]
AII receptor; [2]
  IC50: 14.1 nM
